{"source": "patent US9339469B2", "about": "“R(+)-N-methyl-propargyl-aminoindan” (Teva Pharmaceutical Industries, Ltd., priority 2011, dated 2016)", "key": {"[1]": {"settings": "in vivo; cited from earlier work"}, "[2]": {"settings": "melt phase, 78 and 90° C. for 24, 72 or 137 hrs", "procedure": "Samples intended to degrade under en inert atmosphere were flushed with nitrogen for 5 minutes before closing with a stepper.\nThe samples were introduced into a pre-heated oven and held at a constant temperature of 78 and 90° C. for 24, 72 or 137 hrs. After completion of the treatment the samples were refrigerated and analyzed."}}, "data": [{"smiles": "C#CCN[C@@H]1CCc2ccccc21", "note": "[rasagiline, R(+)-N-propargyl-1-aminoindan]", "values": [{"measurement": "absolute bioavailability", "setting": "[1]", "value": "about 36%"}, {"measurement": "formation of R(+)-N-methyl-PAI (summary of Table 1)", "setting": "[2]", "value": "no R(+)-N-methyl-PAI was formed"}]}]}
